Reference: patent US20120171123A1, “USES AND COMPOSITIONS FOR TREATMENT OF RHEUMATOID ARTHRITIS” (priority 2006, published 2012)
Read-outs that look alike come from different tables or passages of the source. Marks after values point to notes of the source that are not given here.

Columns and labels:
[1] = system: MTX-naïve adult patients with early RA (<3 years); assay: Study J: HAQ DI; type: in vivo, human; conditions: for HAQ DI mean change from baseline: LOCF
Text: The Health Assessment Questionnaire Disability Index (HAQ DI) is a disease-specific tool that measures patient-reported physical function in 8 categories corresponding to normal activities in daily living. Fatigue is an important yet still often overlooked systemic symptom of RA. The Functional Assessment of Chronic Illness Therapy-Fatigue (FACIT-F) tool, measured by a 13-item, validated scale, assesses the impact of a disease and its therapy on fatigue.
Study J is described in detail in the above examples. The Health Assessment Questionnaire Disability Index (HAQ DI) and Functional Assessment of Chronic Illness Therapy-Fatigue (FACIT-F) were assessed at baseline, and following 12, 26, 42, 52, 76, and 104 weeks of therapy. Changes in scores were computed by subtracting the baseline from post-treatment score for each patient; mean changes were reported for each treatment group. The HAQ DI is assessed on a scale of 0-3, with higher numbers indicating greater disability. The minimum clinically important difference (MCID) is defined as changes ≧0.22 (Goldsmith C H, et al. J Rheumatol 1993; 20-561-5). The FACIT-F is assessed on a scale of 0-52, with higher scores indicating less fatigue. Changes of ≧4 are considered clinically meaningful (Cella D, et al. J Pain Symptom Manage 2002:24:547-61).

[2] = system: patients with long-standing RA
[3] = system: patients with moderate to severe rheumatoid arthritis; assay: Study C: EULAR response; type: in vivo, human; conditions: 12 weeks
Procedure: The Canadian Adalimumab Clinical Trial (Study C) was an open-label, multi-center, Phase IIIb study conducted in Canada. […] Efficacy and safety were assessed at baseline, 4, 8, and 12 weeks. Efficacy assessments included tender joint count (TJC 0-28), swollen joint count (SJC 0-28), Disease Activity Score 28 (DAS28), Health Assessment Questionnaire (HAQ), and EULAR response. This was a preliminary analysis of 236 patients. The sample size for each outcome variable is based on the data available at the time of the analysis. The data from this preliminary analysis were compared with the Week 12 data from Study A (N=2008).

[4] = system: patients with long-standing RA; assay: Study I open-label extension: HAQ; type: in vivo, human; conditions: 5 years
Procedure: Demographic data, age, gender, disease duration, rheumatoid factor and changes in TJC, SJC, CRP, DAS28, HAQ and ACR responses were analysed. Baseline demographics and disease characteristics as well as efficacy measures at last visit (ACR 20/50/70, DAS28, HAQ) were compared between the groups. All patients, including those who discontinued from the trial, were evaluated
Patients were eligible to enroll in Study I if they met ACR criteria for diagnosis of RA. […] Efficacy outcomes were assessed at pre-specified intervals as observed data. Treatment time was calculated beginning with the first subcutaneous injection of adalimumab at any dose, excluding time on placebo. Improvements in signs and symptoms of RA were evaluated for ACR20, ACR50, and ACR70 criteria, 28-joint count Disease Activity Score (DAS28) using the CRP-based formula, and Health Assessment Questionnaire (HAQ). Patients with changes in dosage of MTX or corticosteroids were evaluated for at least 6 months; these patients were eligible for the extension study for at least 6 months and were eligible for discretionary dose tapering. Patients were monitored for adverse events (AEs) during the entire length of the study, from signed informed consent through last visit.

[5] = system: patients with active RA; assay: Study A in France: AIMS2-SF quality of life; type: in vivo, human; conditions: for AIMS2-SF Work component score: working patients only
Text: Efficacy of a treatment for rheumatoid arthritis can be determined by comparing AIMS2-SF scores given by subjects having rheumatoid arthritis. The AIMS2-SF is a shorter version of the AIMS2 (i.e., available in 2-page format) and has psychometric properties similar to those of the AIMS2 (see Guillemin et al. (1997) Arthritis Rheum. 40(7):1267).
Unsatisfactory response or intolerance to at least one prior DMARD was required for enrollment in Study A. A 12-week study period was followed by an optional extension phase, with an efficacy assessment performed at Weeks 2, 6, 12, 20, and every eight weeks thereafter. Patients discontinued the study when they stopped receiving adalimumab or when […].
The HAQ and the Arthritis Impact Measurement Scale Short Form (AIMS2-SF) are both extensively validated health-related quality-of-life outcome measures in RA (Guillemin et al. Arth Rheum 1997; 40(7):1267-1274). Both measures have been proven useful in cohort studies and clinical trials (Guillemin et al). The HAQ and the AIMS2-SF are effective in detecting both long-term and short-term health status changes (Guillemin et al). In France, Study A patients completed the French AIMS2-SF, a tool that measures disease impact on physical function and overall quality-of-life in five components. Study A began in France began in December 2002. Completion of the AIMS2-SF at Study Entry Visit 1, Week 12, and Week 28 (if patient participated in the continuation period) was a component added in March 2003 as a France-specific amendment to the study protocol. Because AIMS2-SF was introduced later into the study, the number of French patients answering the AIMS2-SF is smaller than the overall French Study A population
A total of 266 patients out of 1,002 Study A patients in France completed the AIMS2-SF. AIMS2-SF responders recorded a significant improvement in quality-of-life.

[6] = Baseline to Week 12, mean of individual patient differences

How did the “HAQ DI mean score” value ([1]; Baseline) turn out when `CN(Cc1cnc2nc(N)nc(N)c2n1)c1ccc(C(=O)N[C@@H](CCC(=O)O)C(=O)O)cc1` [mtx alone, methotrexate] was run?
Its value is 1.48.

What about the “HAQ DI mean change from baseline” value ([1]; ΔWeek 12) of the same molecule?
Its value is −0.53.

What about the “HAQ DI mean change from baseline” value ([1]; ΔWeek 26) of the same molecule?
The value was −0.67.

What about the “HAQ DI mean change from baseline” value ([1]; ΔWeek 42) of the same molecule?
The value was −0.68.

What about the “HAQ DI mean change from baseline” value ([1]; ΔWeek 52) of the same molecule?
Its value is −0.69.

And the “HAQ DI mean change from baseline” value ([1]; ΔWeek 76)?
Its value is −0.68.

And the “HAQ DI mean change from baseline” value ([1]; ΔWeek 104)?
Its value is −0.68.

Which results are given for “adalimumab: human anti-TNF mAb (HUMIRA, Abbott Laboratories), described in U.S. Pat. No. 6,090,382 as D2E7”?
Demyelinating disease ([2]; all exposure): 0.04 E/100-PY; Lymphoma ([2]; all exposure): 0.16 E/100-PY; Pancytopenia ([2]; all exposure): 0.00 E/100-PY; Pneumonia ([2]; all exposure): 0.6 E/100-PY; Septic arthritis ([2]; all exposure): 0.12 E/100-PY; Tuberculosis ([2]; all exposure): 0.04 E/100-PY; Urinary tract infections ([2]; all exposure): 0.28 E/100-PY; Serious infections ([2]; all exposure, 2485 patient-years): 2.62 E/100-PY; Demyelinating disease ([2]; pivotal trials): 0.13 E/100-PY; Lymphoma ([2]; pivotal trials): 0.25 E/100-PY; Pancytopenia ([2]; pivotal trials): 0.25 E/100-PY; Pneumonia ([2]; pivotal trials): 1.13 E/100-PY; Septic arthritis ([2]; pivotal trials): 0.38 E/100-PY; Tuberculosis ([2]; pivotal trials): 0.13 E/100-PY; Urinary tract infections ([2]; pivotal trials): 0.5 E/100-PY; Serious infections ([2]; pivotal trials, 793 patient-years): 4.16 E/100-PY; Good EULAR response [3]: 18%; Moderate EULAR response [3]: 79%; EULAR response, % good ([3]; Study C, preliminary analysis): 18 (121) %; EULAR response, % moderate ([3]; Study C, preliminary analysis): 78 (121) %; patients with no physical limitations (HAQ=0) [4]: 28%; AIMS2-SF Afect component score ([5]; Baseline): 4.7; AIMS2-SF Physical component score ([5]; Baseline): 3.9; AIMS2-SF Social component score ([5]; Baseline): 5.3; AIMS2-SF Symptom component score ([5]; Baseline): 6.7; AIMS2-SF Physical component, % Change [5, 6]: −25.0^§ %; AIMS2-SF Social component, % Change [5, 6]: 1.6%; AIMS2-SF Social component, Mean Change [5, 6]: −0.1; AIMS2-SF Symptom component, % Change [5, 6]: −43.4^§ %; AIMS2-SF Symptom component, Mean Change [5, 6]: −3.2^§; AIMS2-SF Work component score ([5]; Baseline): 4.2; AIMS2-SF Work component score ([5]; Week 12): 3.3; AIMS2-SF Afect component score ([5]; week 12): 3.6; AIMS2-SF Physical component score ([5]; week 12): 2.9; AIMS2-SF Social component score ([5]; week 12): 5.3; AIMS2-SF Symptom component score ([5]; week 12): 3.5
